Test system: Per2-dLuc U2OS reporter cells
Assay: Per2 assay for evaluating the potency of test compounds (high-throughput circadian assay)
Format: cell-based
Conditions: Homo sapiens, U2OS, stable U2OS reporter cells harboring Per2-dLuc; luminescence monitored over 4-5 days at 35° C.
Summary of the method: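 After 24 h culture, U2OS cells carrying Per2-dLuc were serum-shock synchronized into explant medium with 1.0 mM luciferin (10 mM HEPES pH 7.0) and compound in 0.5% DMSO. Luminescence was recorded over 4–5 days at 35 °C. Circadian period, amplitude and phase were derived, and EC50 calculated.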

Structure (SMILES) | EC50
CS(=O)(=O)N1CCCC1C(O)Cn1c2ccccc2c2ccccc21 (stereo not drawn) [Compound 241, 2-(9H-Carbazol-9-yl)-1-(1-(methyl-sulfonyl)-pyrrolidin-2-yl)ethanol] | 488 nM
CC1CCC(N(CC(O)Cn2c3ccccc3c3ccccc32)S(C)(=O)=O)CC1 (stereo not drawn) [Compound 126, N-(3-(9H-Carbazol-9-yl)-2-hydroxypropyl)-N-(4-methylcyclohexyl)methanesulfonamide] | 425 nM
CN(CC(O)Cn1c2cc(F)ccc2c2ccc(F)cc21)S(C)(=O)=O (stereo not drawn) [Compound 94, N-(3-(2,7-Difluoro-9H-carbazol-9-yl)-2-hydroxypropyl)-N-methylmethanesulfonamide] | 3450 nM
CC(O)(CN1CCCCS1(=O)=O)Cn1c2ccc(F)cc2c2cc(F)ccc21 (stereo not drawn) [Compound 116, 2-(3-(3,6-Difluoro-9H-carbazol-9-yl)-2-hydroxy-2-methylpropyl)-1,2-thiazinane 1,1-dioxide] | 540 nM
CC(O)(CN1CCCNS1(=O)=O)Cn1c2ccc(F)cc2c2cc(F)ccc21 (stereo not drawn) [Compound 172, 2-(3-(3,6-Difluoro-9H-carbazol-9-yl)-2-hydroxy-2-methylpropyl)-1,2,6-thiadiazinane-1,1-dioxide] | 375 nM
CC1CN(CC(C)(O)Cn2c3ccc(F)cc3c3cc(F)ccc32)S(=O)(=O)C1 (stereo not drawn) [Compound 195, 2-(3-(3,6-Difluoro-9H-carbazol-9-yl)-2-hydroxy-2-methylpropyl)-4-methylisothiazolidine-1,1-dioxide] | 254 nM

From patent US10383880B2 (Reset Therapeutics, Inc., priority 2012, dated 2019)
